Laboratory results as given in patent US7705016B2, “Regulation of food intake by modulation of long-chain fatty acyl-CoA levels in the hypothalamus” (Albert Einstein College of Medicine of Yeshiva University, priority 2003, dated 2010).

Assays:
hypothalamic NPY mRNA = assay: Hypothalamic NPY expression after ICV OA (northern blot); assay type: in vivo, rat; settings: 30 nmol ICV bolus
Method: NPY Expression Studies. For analysis of NPY expression, we studied two groups of rats, HF55 and HF140. After three days on the respective diet regimen, ICV Vehicle (10% HPB in aCSF) or ICV OA (30 nmol) was injected as a bolus into the third cerebral ventricle one hour before the start of the dark cycle. Food was withdrawn and hypothalami were harvested 16 hrs following injection. Northern Blot Analysis. Total RNA was isolated from hypothalami and liver with Trizol (Invitrogen Corp., California, USA). NPY, Glc-6-Pase or PEPCK expression was measured by northern blot analysis. Hypothalamic RNA was analyzed using probes for prepro-NPY and β-actin. To assess the effect of ICV OA on the expression of hepatic enzymes, total RNA was isolated from freeze-clamped liver tissues from rats subjected to insulin clamp studies. Glc-6-Pase and PEPCK cDNA were obtained as previously described (Combs et al., 2001; Massillon et al., 1996; 1998). Probes were labeled with [α-^32P] dCTP using a random primer kit (Stratagene). Quantification was performed by scanning densitometry, normalizing for β-actin signal and 18S ribosomal RNA to correct for loading variabilities.

CPT1 = target: T1, CPT1 (Rattus norvegicus, UniProt P32198); assay: CPT1 activity in arcuate nuclei and whole hypothalamus after ICV injection; assay type: in vivo; settings: after ICV administration
T1 construct: CPT1 activity was measured in the particulate fraction of protein extracts from animals treated with ICV control injections; from tissue; host or cells: hypothalamus (arcuate nucleus) of male Sprague-Dawley rats, in vivo or ex vivo
T1 sequence (P32198 2-773): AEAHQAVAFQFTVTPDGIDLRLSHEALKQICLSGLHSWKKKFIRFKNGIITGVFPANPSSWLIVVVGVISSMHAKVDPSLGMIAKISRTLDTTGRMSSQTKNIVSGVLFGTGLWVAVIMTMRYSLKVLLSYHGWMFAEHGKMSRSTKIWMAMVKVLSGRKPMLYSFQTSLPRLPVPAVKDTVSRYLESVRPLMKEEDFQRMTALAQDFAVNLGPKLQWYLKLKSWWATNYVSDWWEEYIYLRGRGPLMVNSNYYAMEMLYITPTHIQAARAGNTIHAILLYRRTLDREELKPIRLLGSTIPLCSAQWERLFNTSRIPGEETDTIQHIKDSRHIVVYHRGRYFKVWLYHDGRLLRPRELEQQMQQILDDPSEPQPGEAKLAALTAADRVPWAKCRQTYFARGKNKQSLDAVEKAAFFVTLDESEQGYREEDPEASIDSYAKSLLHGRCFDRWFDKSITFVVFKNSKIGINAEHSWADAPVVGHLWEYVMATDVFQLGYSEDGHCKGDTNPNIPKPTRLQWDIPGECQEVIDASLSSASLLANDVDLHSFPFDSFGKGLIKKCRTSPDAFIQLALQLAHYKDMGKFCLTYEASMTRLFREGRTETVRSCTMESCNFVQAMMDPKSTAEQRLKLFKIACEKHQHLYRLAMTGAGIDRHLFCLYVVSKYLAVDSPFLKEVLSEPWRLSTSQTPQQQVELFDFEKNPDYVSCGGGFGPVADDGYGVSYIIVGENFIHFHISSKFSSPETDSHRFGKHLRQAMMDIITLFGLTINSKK
Method: Surgical implantation of ICV cannulae was performed on day 1 (˜3 weeks prior to the in vivo study). Full recovery of body weight and food intake was achieved by day 7. Rats randomized for ribozyme treatment received an ICV injection of CPT1L-Ribo, CPT inhibitors or controls on day 17. The experimental group treated with TDGA received ICV injection of the inhibitor on day 21, 6 hr prior to the harvesting of brains. Panels B. and C. show quantitation of CPT1L (B) and CPT1M (C) mRNA by real-time PCR. RNA was purified from individual hypothalamic nuclei (PVN, LHA, and arcuate), which were obtained by micro punch technique 3 days after ICV injection of pTarget control (▪; N=4) or CPT1LRibo (□; N=5). Copy number of CPT1 mRNA is normalized to β-Actin copy number ×10^6. […] CPT1 activity was measured in the particulate fraction of protein extracts from animals treated with ICV control injections (▪; N=6, receiving aCSF+2% DMSO or Control Ribo), TDGA ( ?; N=6), or CPTL-Ribo (□; N=5). […] Levels of stearoyl-CoA (F) and oleyl-CoA (E) respectively were measured by HPLC in arcuate of rats injected ICV with control compound (▪; ST1340) or ST1326 (□).
ICV catheters were implanted in male Sprague-Dawley rats by stereotaxic surgery (Obici et al., 2002a; Obici et al., 2001; Liu et al., 1998). […] Thus, we next measured CPT1 activity in ARC and in whole hypothalamus. […]

Row | Compound | suppression of hypothalamic NPY mRNA expression (hypothalamic NPY mRNA; 55-kcal/d group, overnight fast) [%] | decrease in hypothalamic NPY mRNA (hypothalamic NPY mRNA; three days of voluntary overfeeding (HF140), fasted) [%] | CPT1 activity in ARC (CPT1)
1 | CCCCCCCC/C=C\CCCCCCCC(=O)O [OA, oleic acid] | ~60 | 28 | 
2 | CPT1L-Ribo: plasmid (pTarget, CMV promoter) expressing a hammerhead ribozyme that specifically cleaves rat CPT1L mRNA, complexed to PEI for ICV injection (DNA CUGUACCAAAGAGCUGUAGAGUCCGUGAGGACGAAACGCCGCUCACAAUG) |  |  | marked decrease
